What was measured:
[1] = PK profile of GLP-2-2G peptide, GLP-2-hyFc5 and GLP-2-hyFc9, subcutaneous, rats; parameters: species or system Sprague Dawley rats; details: in vivo, sc, rat, serum, GLP-2 ELISA kit
Method: In order to confirm the pharmacokinetic profiles (PK profiles) of the GLP-2-hyFc5 and GLP-2-hyFc9 fusion polypeptides prepared above, experiments were performed as follows.
Male Sprague Dawley rats (3 rats/group) were administered subcutaneously with respective proteins (GLP-2-2G peptide, GLP-2-hyFc5, and GLP-2-hyFc9). Blood samples were collected before the administration and after the administration at 0.08-, 0.16-, 0.5-, 2-, 4-, 8-, 24-, 48-, 96-, 120-, and 168 hours, respectively. The blood samples were stored at room temperature for 30 minutes for agglutination. The samples were centrifuged at 3000 rpm for 10 minutes to obtain serum from each sample and then stored in a deep freezer. The samples were quantitated by dilution to be analyzed in a position on a straight line of standard curve using GLP-2 kit (Millipore, Cat. No. EZGLP2-37K).

[2] = cited from earlier work

Compound	half-life [1] [h]	in-vivo half-life [2]
CC[C@H](C)[C@H](NC(=O)[C@H](Cc1ccccc1)NC(=O)[C@H](CC(=O)O)NC(=O)[C@H](CCCNC(=N)N)NC(=O)[C@H](C)NC(=O)[C@H](C)NC(=O)[C@H](CC(C)C)NC(=O)[C@H](CC(N)=O)NC(=O)[C@H](CC(=O)O)NC(=O)[C@H](CC(C)C)NC(=O)[C@@H](NC(=O)[C@@H](NC(=O)[C@H](CC(N)=O)NC(=O)[C@H](CCSC)NC(=O)[C@H](CCC(=O)O)NC(=O)[C@H](CC(=O)O)NC(=O)[C@H](CO)NC(=O)[C@H](Cc1ccccc1)NC(=O)[C@H](CO)NC(=O)CNC(=O)[C@H](CC(=O)O)NC(=O)CNC(=O)[C@@H](N)Cc1c[nH]cn1)[C@@H](C)O)[C@@H](C)CC)C(=O)N[C@@H](CC(N)=O)C(=O)N[C@@H](Cc1c[nH]c2ccccc12)C(=O)N[C@@H](CC(C)C)C(=O)N[C@H](C(=O)N[C@@H](CCC(N)=O)C(=O)N[C@H](C(=O)N[C@@H](CCCCN)C(=O)N[C@H](C(=O)N[C@H](C(=O)N[C@@H](CC(=O)O)C(=O)O)[C@@H](C)O)[C@@H](C)CC)[C@@H](C)O)[C@@H](C)CC [GLP-2-2G, reference compound]	1.2	
glucagon like peptide-2 [GLP-2]		about 7 minutes
